Assay results: patent US12618082B2, “Engineered muscle targeting compositions” (priority 2020, dated 2026)
“Also recorded” adds a separate entry of the source.

What was measured:
[1] = biological target: T1, αV-containing integrin heterodimers (Homo sapiens, UniProt P06756); assay: Small molecule pan-αV integrin antagonist inhibition of transduction, human primary myotubes; assay type: cell-based; conditions: increasing concentrations of the antagonist; capsid named in the value
T1 construct: endogenous in cells; host or cells: human primary skeletal muscle myotubes differentiated from Lonza myoblasts
Protocol: (§1) Pan-alpha V integrin antagonists CWHM-12 and GLPG0187 (MedChem Express), or anti-αVβ6 antibody (ab77906, abcam) were diluted in DMEM containing 2% horse serum at the specified concentrations. Media was removed from differentiated myotubes and replaced with the diluted inhibitors, after which the myotubes were incubated on ice for 30 minutes to inhibit endocytosis. Following this incubation, AAV9-, MyoAAV-, or EMyoAAV-CK8-Nluc were added to the cells at 5E+3 vg/cell and the plates were transferred back to the tissue culture incubators. 24 hours after transduction, luciferase intensity was measured with the Nano-Glo Luciferase Assay (Promega).

[2] = biological target: T2, αV-containing integrin heterodimers (Mus musculus, UniProt P43406); assay: Small molecule pan-αV integrin antagonist inhibition of transduction, mouse primary myotubes; assay type: cell-based; conditions: increasing concentrations of the antagonist; capsid named in the value
T2 construct: endogenous in cells; host or cells: mouse primary myotubes differentiated from C57BL/6J satellite cells
T2 sequence (P43406 31-1044): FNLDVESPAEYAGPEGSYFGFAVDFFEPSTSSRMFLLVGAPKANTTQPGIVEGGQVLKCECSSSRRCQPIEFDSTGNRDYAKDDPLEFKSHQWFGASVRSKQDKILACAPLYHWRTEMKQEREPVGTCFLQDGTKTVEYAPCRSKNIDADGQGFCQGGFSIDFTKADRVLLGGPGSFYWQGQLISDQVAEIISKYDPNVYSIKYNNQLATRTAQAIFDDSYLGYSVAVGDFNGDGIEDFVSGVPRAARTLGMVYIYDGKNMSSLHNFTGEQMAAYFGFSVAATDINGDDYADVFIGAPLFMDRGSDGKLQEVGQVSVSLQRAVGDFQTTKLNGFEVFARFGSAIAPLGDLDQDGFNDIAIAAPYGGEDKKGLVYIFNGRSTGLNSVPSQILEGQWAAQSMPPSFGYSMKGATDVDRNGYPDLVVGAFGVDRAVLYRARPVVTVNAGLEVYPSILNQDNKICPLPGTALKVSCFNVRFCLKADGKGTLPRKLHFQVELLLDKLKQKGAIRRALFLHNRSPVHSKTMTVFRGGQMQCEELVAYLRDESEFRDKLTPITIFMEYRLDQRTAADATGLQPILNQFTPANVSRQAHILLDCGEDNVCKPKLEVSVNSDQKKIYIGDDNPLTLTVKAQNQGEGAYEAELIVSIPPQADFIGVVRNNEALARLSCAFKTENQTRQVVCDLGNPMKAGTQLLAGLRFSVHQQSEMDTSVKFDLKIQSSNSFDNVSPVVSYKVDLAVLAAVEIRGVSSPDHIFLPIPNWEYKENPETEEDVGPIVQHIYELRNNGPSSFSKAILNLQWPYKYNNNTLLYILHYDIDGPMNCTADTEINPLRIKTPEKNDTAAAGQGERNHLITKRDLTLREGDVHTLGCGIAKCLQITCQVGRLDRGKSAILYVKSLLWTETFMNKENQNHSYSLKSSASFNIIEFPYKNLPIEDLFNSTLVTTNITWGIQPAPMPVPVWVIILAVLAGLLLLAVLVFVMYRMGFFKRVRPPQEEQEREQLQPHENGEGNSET
Protocol: as §1

T1 sequence (P06756 31-889 limits assumed): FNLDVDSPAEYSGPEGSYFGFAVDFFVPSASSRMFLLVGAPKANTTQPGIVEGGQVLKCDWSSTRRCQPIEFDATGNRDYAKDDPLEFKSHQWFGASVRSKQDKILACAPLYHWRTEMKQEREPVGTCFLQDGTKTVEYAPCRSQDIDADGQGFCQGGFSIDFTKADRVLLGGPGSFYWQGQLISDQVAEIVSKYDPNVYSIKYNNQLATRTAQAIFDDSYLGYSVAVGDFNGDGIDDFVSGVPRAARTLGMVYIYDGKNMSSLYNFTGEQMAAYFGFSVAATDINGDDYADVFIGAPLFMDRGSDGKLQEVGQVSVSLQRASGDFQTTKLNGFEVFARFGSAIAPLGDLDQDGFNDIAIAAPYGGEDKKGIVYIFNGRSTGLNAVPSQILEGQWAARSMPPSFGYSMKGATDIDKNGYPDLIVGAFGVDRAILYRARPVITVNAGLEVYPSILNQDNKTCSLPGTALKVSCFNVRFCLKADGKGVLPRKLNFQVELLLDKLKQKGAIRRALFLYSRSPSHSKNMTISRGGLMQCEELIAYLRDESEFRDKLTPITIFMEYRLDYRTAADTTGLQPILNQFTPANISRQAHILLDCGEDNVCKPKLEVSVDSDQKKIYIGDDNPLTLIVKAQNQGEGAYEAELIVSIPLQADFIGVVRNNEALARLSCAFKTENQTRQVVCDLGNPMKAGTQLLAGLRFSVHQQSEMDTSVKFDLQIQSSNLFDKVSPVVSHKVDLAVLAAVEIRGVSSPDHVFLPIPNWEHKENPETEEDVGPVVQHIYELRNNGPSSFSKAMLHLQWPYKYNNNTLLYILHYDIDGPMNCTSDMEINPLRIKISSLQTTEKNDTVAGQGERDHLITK
T1 sequence (P06756 891-1048 limits assumed): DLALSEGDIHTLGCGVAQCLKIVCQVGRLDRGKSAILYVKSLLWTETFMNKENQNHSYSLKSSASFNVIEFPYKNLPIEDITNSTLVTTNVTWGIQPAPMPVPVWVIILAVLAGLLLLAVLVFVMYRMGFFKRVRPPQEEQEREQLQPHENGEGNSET

In the case of CC(C)(C)c1cc(Br)cc([C@H](CC(=O)O)NC(=O)CNC(=O)c2cc(O)cc(NC3=NCC(O)CN3)c2)c1 (stereo partly shown) [CWHM-12], the “effect of the pan-αV integrin antagonist on AAV transduction efficiency, human primary myotubes” value [1] is reported as “impeded MyoAAV 1A transduction in a dose-dependent manner” and the “effect of the pan-αV integrin antagonist on AAV transduction efficiency, mouse primary myotubes” value [2] is reported as “impeded MyoAAV 1A transduction in a dose-dependent manner”.
With COc1ccc(S(=O)(=O)N[C@@H](CNc2nc(C)nc(N3CCC(c4ccc5c(n4)NCCC5)CC3)c2C)C(=O)O)cc1 [GLPG-0187] the “effect of the pan-αV integrin antagonist on AAV transduction efficiency, human primary myotubes” value [1] was “dose-dependent decrease in the transduction efficiency of EMyoAAV; also recorded: impeded MyoAAV 1A transduction in a dose-dependent manner; also recorded: dose-dependent decrease in the transduction efficiency of MyoAAV 2A; also recorded: dose-dependent decrease in transduction for all the 4 variants” and the “effect of the pan-αV integrin antagonist on AAV transduction efficiency, mouse primary myotubes” value [2] was “impeded MyoAAV 1A transduction in a dose-dependent manner”.
